From US20080044348A1 (priority 2006, published 2008)

These compounds were tested on HIF1α signaling.
Assay type: cell-based

Compound	effect on CoCl2-induced HIF1α signaling	time to induce hypoxia in the entire spheroid [h]
COc1ccc(C[C@H]2NC[C@H](O)[C@H]2OC(C)=O)cc1 [Anisomycin]	suppressed CoCl2-induced HIF1α signaling	
COc1cc(C[C@H]2C(=O)OC[C@@H]2Cc2ccc(OC)c(OC)c2)ccc1O [Arctigenin]	suppressed CoCl2-induced HIF1α signaling	
[Cl][Co][Cl] [Cobalt chloride]		6 to 8
COc1cc2c(cc1OC)[C@@H]1C(=O)c3ccc4c(c3O[C@@H]1CO2)C=CC(C)(C)O4 [Deguelin]	no significant effect on HIF1α signaling	
Nc1ccn([C@@H]2O[C@H](CO)[C@@H](O)C2(F)F)c(=O)n1 [Gemzar]	suppressed CoCl2-induced HIF1α signaling	
Cc1ccc(NC(=O)c2ccc(CN3CCN(C)CC3)cc2)cc1Nc1nccc(-c2cccnc2)n1 [Gleevec]	no significant effect on HIF1α signaling	
COc1cc2ncnc(Nc3ccc(F)c(Cl)c3)c2cc1OCCCN1CCOCC1 [Iressa]	suppressed CoCl2-induced HIF1α signaling	
CCCCCCCCCCC[C@@H](C[C@@H]1OC(=O)[C@H]1CCCCCC)OC(=O)[C@H](CC(C)C)NC=O [Orlistat]	suppressed CoCl2-induced HIF1α signaling	
C[S+]([O-])c1ccc(-c2nc(-c3ccncc3)c(-c3ccc(F)cc3)[nH]2)cc1 (centres unmarked) [SB 203580]	no significant effect on HIF1α signaling	
C#Cc1cccc(Nc2ncnc3cc(OCCOC)c(OCCOC)cc23)c1 [Tarceva]	suppressed CoCl2-induced HIF1α signaling	
PD 168393	no significant effect on HIF1α signaling	
